Measured values published in patent US6737383B1, “Herbicidal oxadiazolidines” (priority 1999, dated 2004).

Legend:
[1] = system: crabgrass; experiment: Test A crabgrass; assay type: in vivo, Digitaria spp.; settings: 0 to 10 scale where 0 is no effect and 10 is complete control
Outline: (§1)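 Injury scored visually after about eleven greenhouse days against untreated plants, 0 = no effect, 10 = complete control. Compounds, formulated in surfactant-containing non-phytotoxic solvent, were applied as preemergence soil drench to sandy loam plantings and as postemergence runoff spray at the 1–2 leaf stage.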

[2] = system: barnyardgrass; experiment: Test A barnyardgrass; assay type: in vivo, Echinochloa crus-galli; settings: 0 to 10 scale where 0 is no effect and 10 is complete control
Outline: as §1

[3] = system: Green foxtail; experiment: Test D green foxtail; assay type: in vivo; settings: Preemergence, 0 to 100 scale
Outline: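 Weed seeds planted in sandy loam; species kept apart in individual pots or compartments. Preemergence tests: treatment to soil surface within one day. Greenhouse growth, then visual injury scoring at 14–21 days (0–100).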

[4] = system: soybean; experiment: Test C postemergence soybean; assay type: in vivo, Glycine max; settings: 0 to 100 scale, 0 no effect, 100 complete control
Procedure: (§2) Compounds evaluated in this test were formulated in a non-phytotoxic solvent mixture which included a surfactant and applied to plants that were grown for various periods of time before treatment (postemergence application). A mixture of sandy loam soil and greenhouse potting mix in a 60:40 ratio was used for the postemergence test.
(§3) Plantings of these crops and weed species were adjusted to produce plants of appropriate size for the postemergence test. All plant species were grown using normal greenhouse practices. Crop and weed species include arrowleaf sida (Sida rhombifolia), barnyardgrass (Echinochloa crus-galli), cocklebur (Xanthium strumarium), common ragweed (Ambrosia elatior), corn (Zea mays), cotton (Gossypium hirsutum), eastern black nightshade (Solanum ptycanthum), fall panicum (Panicum dichotomiflorum), field bindweed (Convolvulus arvensis), giant foxtail (Setaria faberii), hairy beggarticks (Bidens pilosa), ivyleaf morningglory (Ipomoea hederacea), johnsongrass (Sorghum halepense), ladysthumb smartweed (Polygonum persicaria), lambsquarters (Chenopodium album), large crabgrass (Digitaria sanguinalis), purple nutsedge (Cyperus rotundus), redroot pigweed (Amaranthus retroflexus), soybean (Glycine max), surinam grass (Brachiaria decumbens), velvetleaf (Abutilon theophrasti) and wild poinsettia (Euphorbia heterophylla).
(§4) Treated plants and untreated controls were maintained in a greenhouse for approximately 14, to 21 days, after which all treated plants were compared to untreated controls and visually evaluated. Plant response ratings, summarized in Table C, were based upon a 0 to 100 scale where 0 was no effect and 100 was complete control. A dash response (−) means no test result.

[5] = system: velvetleaf; experiment: Test C postemergence velvetleaf; assay type: in vivo, Abutilon theophrasti; settings: 0 to 100 scale, 0 no effect, 100 complete control
Outline: (§5)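 Compounds in a non-phytotoxic solvent mixture with surfactant were sprayed postemergence on greenhouse-grown plants sized for treatment, in 60:40 sandy loam soil:potting mix. After about 14 to 21 days, injury was rated visually against untreated controls on a 0–100 scale (0 no effect, 100 complete control).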

[6] = system: barnyardgrass; experiment: Test C postemergence barnyardgrass; assay type: in vivo, Echinochloa crus-galli; settings: 0 to 100 scale, 0 no effect, 100 complete control
Outline: as §5

[7] = system: fall panicum; experiment: Test C postemergence fall panicum; assay type: in vivo, Panicum dichotomiflorum; settings: 0 to 100 scale, 0 no effect, 100 complete control
Outline: as §5

[8] = system: arrowleaf sida; experiment: Test C postemergence arrowleaf sida; assay type: in vivo, Sida rhombifolia; settings: 0 to 100 scale, 0 no effect, 100 complete control
Outline: as §5

[9] = system: goosegrass; experiment: Test D goosegrass; assay type: in vivo, Eleusine indica; settings: Postemergence, 0 to 100 scale
[10] = system: ladysthumb smartweed; experiment: Test C postemergence ladysthumb smartweed; assay type: in vivo, Polygonum persicaria; settings: 0 to 100 scale, 0 no effect, 100 complete control
Procedure: as §2, §3, §4

[11] = system: scentless chamomile; experiment: Test E scentless chamomile; assay type: in vivo, Matricaria inodora; settings: Postemergence
Outline: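 For postemergence, application to 1- to 4-leaf plants growing in a 60:40 sandy loam–potting mix substrate. Formulation: non-phytotoxic solvent mixture plus surfactant. Untreated controls served as the reference for the visual rating after ~21–28 days.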

[12] = system: black nightshade; experiment: Test E black nightshade; assay type: in vivo, Solanum nigra; settings: Preemergence

Row | Compound | Plant response rating, Crabgrass ([1]; Postemergence, Rate 1000 g/ha) | Plant response rating, Crabgrass ([1]; Pre-emergence, Rate 2000 g/ha) | Plant response rating, Barnyardgrass ([2]; Postemergence, Rate 1000 g/ha) | Plant response rating, Barnyardgrass ([2]; Pre-emergence, Rate 2000 g/ha) | Plant response rating, Green foxtail ([3]; Rate 500 g/ha) | Plant response rating, Soybean ([4]; Rate 140 g/ha) | Plant response rating, Soybean ([4]; Rate 280 g/ha) | Plant response rating, Soybean ([4]; Rate 560 g/ha) | Plant response rating, Soybean ([4]; Rate 1120 g/ha) | Plant response rating, Velvetleaf ([5]; Rate 140 g/ha) | Plant response rating, Velvetleaf ([5]; Rate 280 g/ha) | Plant response rating, Velvetleaf ([5]; Rate 560 g/ha) | Plant response rating, Velvetleaf ([5]; Rate 1120 g/ha) | Plant response rating, Barnyardgrass ([6]; Rate 140 g/ha) | Plant response rating, Barnyardgrass ([6]; Rate 280 g/ha) | Plant response rating, Barnyardgrass ([6]; Rate 560 g/ha) | Plant response rating, Barnyardgrass ([6]; Rate 1120 g/ha) | Plant response rating Fall panicum ([7]; Rate 140 g/ha) | Plant response rating Fall panicum ([7]; Rate 280 g/ha) | Plant response rating Fall panicum ([7]; Rate 560 g/ha) | other results
1 | CC(C)N(C(=O)n1oc(=O)n(C2CCCC(C(F)(F)F)C2)c1=O)c1ccc(F)cc1 (stereo not shown) [Compound 184] | 1 | 9 | 2 | 9 | – | – | – | – | – | – | – | – | – | – | – | – | – | – | – | – | –
2 | Cc1ccccc1-n1c(=O)on(C(=O)N(c2ccccc2)C(C)C)c1=O [Compound 36] | – | – | – | – | 100 | – | – | – | – | – | – | – | – | – | – | – | – | – | – | – | –
3 | Cc1ccc(N(C(=O)n2oc(=O)n(C(C)C)c2=O)C(C)C)cc1 [Compound 132] | – | – | – | – | – | 5 | 20 | 30 | 40 | 0 | 0 | 0 | 0 | 50 | 50 | 80 | 95 | 0 | 30 | 50 | Plant response rating Fall panicum ([7]; Rate 1120 g/ha): 50; Plant response rating Arrowleaf sida ([8]; Rate 140 g/ha): 0; Plant response rating Arrowleaf sida ([8]; Rate 280 g/ha): 0; Plant response rating Arrowleaf sida ([8]; Rate 560 g/ha): 10; Plant response rating Arrowleaf sida ([8]; Rate 1120 g/ha): 80
4 | Cc1ccccc1-n1c(=O)on(C(=O)N(c2cc(OC(C)C)c(Cl)cc2Cl)C(C)C)c1=O [Compound 42] | 0 | 0 | 0 | 0 | – | – | – | – | – | – | – | – | – | – | – | – | – | – | – | – | –
5 | CCN(C(=O)n1oc(=O)n(N(C)c2ccccc2)c1=O)C1CCCCC1 [Compound 183] | 1 | 5 | 0 | 9 | – | – | – | – | – | – | – | – | – | – | – | – | – | – | – | – | –
6 | CC(C)N(C(=O)n1oc(=O)n(C2CC2)c1=O)c1ccc(F)cc1F [Compound 299] | – | – | – | – | – | – | – | – | – | – | – | – | – | – | – | – | – | – | – | – | Plant response rating, Goosegrass ([9]; Rate 64 g/ha, 0 no injury, 100 complete control): 90; Plant response rating, Goosegrass ([9]; Rate 125 g/ha, 0 no injury, 100 complete control): 100; Plant response rating, Goosegrass ([9]; Rate 250 g/ha): 100; Plant response rating, Goosegrass ([9]; Rate 500 g/ha): 100
7 | CC(C)N(C(=O)n1oc(=O)n(Cc2ccccc2)c1=O)c1ccccc1 [Compound 94] | – | – | – | – | 100 | 15 | 15 | 30 | 55 | 5 | 5 | 20 | 40 | 0 | 0 | 30 | 65 | 0 | 0 | 10 | Plant response rating Fall panicum ([7]; Rate 1120 g/ha): 70; Plant response rating Arrowleaf sida ([8]; Rate 280 g/ha): 10; Plant response rating Arrowleaf sida ([8]; Rate 560 g/ha): 80; Plant response rating Arrowleaf sida ([8]; Rate 1120 g/ha): 80; Plant response rating Ladysthumb ([10]; Rate 140 g/ha): 5; Plant response rating Ladysthumb ([10]; Rate 280 g/ha): 10; Plant response rating Ladysthumb ([10]; Rate 560 g/ha): 85; Plant response rating Ladysthumb ([10]; Rate 1120 g/ha): 90
8 | CC(C)N(C(=O)n1oc(=O)n(C)c1=O)c1ccc(Cl)cc1 [Compound 137] | 8 | 10 | 8 | 10 | – | – | – | – | – | – | – | – | – | – | – | – | – | – | – | – | –
9 | CC(C)N(C(=O)n1oc(=O)n(N(C)c2ccccc2)c1=O)c1ccc(F)cc1 [Compound 177] | 3 | 9 | 0 | 9 | – | – | – | – | – | – | – | – | – | – | – | – | – | – | – | – | –
10 | CC(C)N(C(=O)n1oc(=O)n(C(C)C)c1=O)c1ccc(F)cc1F [Compound 109] | – | – | – | – | 100 | 35 | 70 | 85 | 85 | 10 | 20 | 50 | 75 | 60 | 85 | 85 | 95 | 50 | 50 | 80 | Plant response rating, Green foxtail ([3]; Rate 250 g/ha): 100; Plant response rating, Scentless chamo ([11]; Rate 125 g/ha, 0 to 100 scale): 0; Plant response rating, Scentless chamo ([11]; Rate 250 g/ha, 0 to 100 scale (0 no effect, 100 complete control)): 0; Plant response rating, Scentless chamo ([11]; Rate 500 g/ha, 0 to 100 scale, 0 no effect, 100 complete control): 10; Plant response rating, Blk nightshade ([12]; Rate 125 g/ha, 0 to 100 scale (0 no effect, 100 complete control)): 75; Plant response rating, Blk nightshade ([12]; Rate 250 g/ha, 0 to 100 scale): 90; Plant response rating, Blk nightshade ([12]; Rate 500 g/ha, 0 to 100 scale where 0 is no effect and 100 is complete control): 90; Plant response rating Fall panicum ([7]; Rate 1120 g/ha): 95; Plant response rating Arrowleaf sida ([8]; Rate 140 g/ha): 60; Plant response rating Arrowleaf sida ([8]; Rate 280 g/ha): 70; Plant response rating Arrowleaf sida ([8]; Rate 560 g/ha): 85; Plant response rating Arrowleaf sida ([8]; Rate 1120 g/ha): 95; Plant response rating Ladysthumb ([10]; Rate 280 g/ha): 10; Plant response rating Ladysthumb ([10]; Rate 560 g/ha): 30; Plant response rating Ladysthumb ([10]; Rate 1120 g/ha): 95
